{"source": "patent US20160243271A1", "about": "“Essential Oils Or Volatile Organics Thereof Electrospun In Chitosan Nanofiber Mats” (UNIVERSITY OF MASSACHUSETTS, priority 2013, published 2016)", "key": {"Escherichia coli S20918": {"system": "Escherichia coli S20918", "assay": "Viability loss of E. coli, modified ASTM E2149-01 shake flask method", "type": "cell-based", "settings": "3 mM CA solution", "method": "(§1) The model organisms were Escherichia coli S20918 (E. coli) and P. aeruginosa S20930 (P. aeruginosa), purchased from Thermo Fisher Scientific, Waltham, Mass. The bacteria were grown in LB at 37.0 and harvested at a concentration of 10^8 cells/mL. To remove residual macromolecules and other growth medium constituents, cells were washed twice and then resuspended in an isotonic solution (0.9% NaCl, pH 5.7). This isotonic solution was used for E. coli and P. aeruginosa loss of viability studies.\nThe viability loss of E. coli in contact with chitosan/CA(0, 0.5, and 5.0%)/PEO nanofiber mats was assayed according to a modified ASTM E2149-01 shake flask method.^30 In parallel to each experiment (i) a blank control (no nanofiber mat) and (ii) an MIC control of CA for E. coli (3 mM CA in solution) were employed.^19 Electrospun mats (10 mm×20 mm) were placed into culture tubes (16 mm×125 mm) along with 4 mL suspensions of E. coli or P. aeruginosa (5×10^6 cells/mL) in an isotonic solution (0.9% NaCl, pH 5.7). The suspensions were shaken at 200 rpm in an orbital shaker maintained at 37° C. At 30, 90, and 180 minutes, 100 μL were pipetted out from the tubes and serial dilutions were plated onto LB plates using the spread plate method.^30-32 After 24 hr incubation on agar plates, the number of viable bacteria was counted. The number of viable cells was multiplied by the dilution factor and expressed as the mean colony forming unit (CFU) per mL. The percent reduction of bacteria resulting from contact with the nanofiber mats was determined using Equation 1 where A represents the mean log10 density of bacteria for the flask containing the treated substrate after the specified contact time and B represents the untreated substrate after the specified contact time."}, "P. aeruginosa S20930": {"system": "P. aeruginosa S20930", "assay": "Viability loss of P. aeruginosa, PI/DAPI fluorescence assay", "type": "cell-based, Pseudomonas aeruginosa", "method": "as §1\nViability loss of P. aeruginosa in contact with chitosan/CA(0, 0.5, and 5.0%)/PEO nanofiber mats was determined using a previously described fluorescence assay.^33 Electrospun mats (20 mm×10 mm) were placed at the bottom of 35 mm×10 mm petri dishes (Becton, Dickinson & Co., Franklin Lakes, N.J.) to which the cells (10^7 cells/mL) resuspended in an isotonic solution were added and diluted by a factor of 2. The cells were incubated at 37° C. for various times (30, 90, and 180 min). […] Fluorescence images were acquired to detect the cells utilizing an epifluorescence microscope (Olympus) with a Chroma cube filter. […] Dead cells and the total number of cells were determined by direct cell counting. […] Throughout the Results and Discussion section, all statistical differences were determined using an unpaired t-test with values of p≦0.05 considered to be statistically significant."}, "E. coli": {"system": "E. coli", "settings": "CA in solution; cited from earlier work"}}}
{"smiles": "O=CC=Cc1ccccc1", "note": "[CA, cinnamaldehyde]", "values": [{"measurement": "E. coli inactivation compared with blank control", "setting": "Escherichia coli S20918; no nanofiber mat", "value": "statistically inactivated more E. coli than the blank control"}, {"measurement": "antibacterial activity against E. coli compared with nanofiber mats", "setting": "Escherichia coli S20918; after 30 and 180 min", "value": "statistically lower level of antibacterial activity"}, {"measurement": "antibacterial activity against E. coli compared with nanofiber mats", "setting": "Escherichia coli S20918; at 90 min", "value": "statistically equivalent to the chitosan/CA(0.5%)/PEO nanofiber mats"}, {"measurement": "P. aeruginosa inactivation, statistical comparison", "setting": "P. aeruginosa S20930; after 30 min", "value": "statistically equivalent"}, {"measurement": "P. aeruginosa inactivation, statistical comparison", "setting": "P. aeruginosa S20930; at 90 min", "value": "statistically equivalent level as the chitosan/CA(0.5 and 5.0%)/PEO nanofiber mats"}, {"measurement": "MIC", "setting": "E. coli", "value": 3000, "unit": "µM"}]}
